Results as given in ChEMBL document CHEMBL1201862, “PubChem BioAssay data set” (2004).
The source made the active and inactive calls.

Legend:
[1] = luciferase reporter signal suppression in cells – H4 neuroglioma cells, luminescence, dose response (AID 1990); assay type: functional, cell-based
[2] = Luminescence Cell-Based Dose Response HTS to Identify Inhibitors of 5'UTR Stem-Loop Driven Prion Protein mRNA Translation in H4 Neuroglioblastoma Cells. [Related pubchem assays: 1827 (Project Summary), 1813 (Primary HTS)]; assay type: functional
[3] = target: T1, Heat shock factor protein 1 (Mus musculus, UniProt P38532); assay: decrease of HSF1-responsive luciferase luminescence – cell-based, NIH3T3, dose retest, confirmation (AID 2382); assay type: functional;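 also: NIH3T3 fibroblasts with HSF1-driven luciferase reporter stressed by proteasome inhibitor MG132; luminescence from HSF1-driven luciferase expression after 8 hours of MG132 stress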
T1 sequence (P38532 whole entry): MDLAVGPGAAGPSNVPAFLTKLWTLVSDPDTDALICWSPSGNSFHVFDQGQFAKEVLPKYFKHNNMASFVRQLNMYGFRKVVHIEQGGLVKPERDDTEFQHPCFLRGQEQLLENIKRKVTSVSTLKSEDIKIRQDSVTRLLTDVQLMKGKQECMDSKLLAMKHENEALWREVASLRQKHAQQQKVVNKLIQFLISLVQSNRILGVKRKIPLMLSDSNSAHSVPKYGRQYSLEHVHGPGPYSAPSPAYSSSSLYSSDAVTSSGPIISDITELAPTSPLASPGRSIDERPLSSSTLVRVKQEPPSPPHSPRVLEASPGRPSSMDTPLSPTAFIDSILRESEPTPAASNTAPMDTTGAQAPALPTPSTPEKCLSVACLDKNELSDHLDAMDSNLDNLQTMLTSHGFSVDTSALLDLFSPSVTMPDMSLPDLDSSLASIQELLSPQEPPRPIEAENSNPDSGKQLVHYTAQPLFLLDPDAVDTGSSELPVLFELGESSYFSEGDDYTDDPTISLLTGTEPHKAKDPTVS

[4] = alpha-synuclein stem-loop luciferase translation blockers – H4 neuroglioma cells, luminescence, confirmation (AID 1988); assay type: functional, cell-based
[5] = test system: Jurkat; assay: blockers of NF-kB activation in T cells – Jurkat, luciferase reporter, luminescence, B- and T-cell, dose response (AID 489004); assay type: functional, cell-based; details: Homo sapiens;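 also: NF-kB luciferase reporter Jurkat cells stimulated with PMA plus ionomycin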
[6] = HEK-293T viability loss, compound-treated – cell-based, uHTS hits, cytotoxicity control for B/T-cell NF-kB inhibitor project, dose response (AID 489019); assay type: functional;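 also: IC50 reflects cytotoxicity as loss of cell viability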
[7] = test system: P388/ADR; assay: cells; assay type: functional; details: Mus musculus
[8] = test system: SN12K1; assay: cells; assay type: functional; details: Homo sapiens
[9] = test system: P388; assay: cells; assay type: functional; details: Mus musculus
[10] = target: Dual specificity protein kinase CLK1 (Homo sapiens, UniProt P49759); assay: inhibition of human CLK1 activity – biochemical, cherry-picked samples, selectivity assay for Dyrk1A inhibitor project, dose response (AID 588811)
[11] = target: Phospholipase D1 (Homo sapiens, UniProt Q13393); assay: PLD1 purified enzyme concentration response. [Related pubchem assays (depositor defined):AID588854]; assay type: functional
[12] = target: Phospholipase D2 (Homo sapiens, UniProt O14939); assay: PLD2 purified enzyme concentration response. [Related pubchem assays (depositor defined):AID588854]; assay type: functional
[13] = test system: HEK293; assay: HEK293T cell viability loss, resazurin readout – resazurin fluorescence, cytotoxicity control for NF-kB activator project, SAR follow-up (AID 493251); assay type: functional, cell-based; details: Homo sapiens
[14] = test system: Jurkat; assay: SAR Analysis of small molecule inhibitors of T-cell specific antigen receptor-induced NF-kB activation in a Jurkat cell line using a luminescence assay - Set 2. [Related pubchem assays (depositor defined):AID435003, AID435012, AID465]; assay type: functional, cell-based; details: Homo sapiens
[15] = test system: HEK293; assay: SAR Analysis of small molecule inhibitors of T-cell specific antigen receptor-induced NF-kB activation in a HEK-293T cell line using a luminescence assay - Set 2. [Related pubchem assays (depositor defined):AID435003, AID435012, AID489026]; assay type: functional, cell-based; details: Homo sapiens

Sequence of Phospholipase D2 (O14939 whole entry): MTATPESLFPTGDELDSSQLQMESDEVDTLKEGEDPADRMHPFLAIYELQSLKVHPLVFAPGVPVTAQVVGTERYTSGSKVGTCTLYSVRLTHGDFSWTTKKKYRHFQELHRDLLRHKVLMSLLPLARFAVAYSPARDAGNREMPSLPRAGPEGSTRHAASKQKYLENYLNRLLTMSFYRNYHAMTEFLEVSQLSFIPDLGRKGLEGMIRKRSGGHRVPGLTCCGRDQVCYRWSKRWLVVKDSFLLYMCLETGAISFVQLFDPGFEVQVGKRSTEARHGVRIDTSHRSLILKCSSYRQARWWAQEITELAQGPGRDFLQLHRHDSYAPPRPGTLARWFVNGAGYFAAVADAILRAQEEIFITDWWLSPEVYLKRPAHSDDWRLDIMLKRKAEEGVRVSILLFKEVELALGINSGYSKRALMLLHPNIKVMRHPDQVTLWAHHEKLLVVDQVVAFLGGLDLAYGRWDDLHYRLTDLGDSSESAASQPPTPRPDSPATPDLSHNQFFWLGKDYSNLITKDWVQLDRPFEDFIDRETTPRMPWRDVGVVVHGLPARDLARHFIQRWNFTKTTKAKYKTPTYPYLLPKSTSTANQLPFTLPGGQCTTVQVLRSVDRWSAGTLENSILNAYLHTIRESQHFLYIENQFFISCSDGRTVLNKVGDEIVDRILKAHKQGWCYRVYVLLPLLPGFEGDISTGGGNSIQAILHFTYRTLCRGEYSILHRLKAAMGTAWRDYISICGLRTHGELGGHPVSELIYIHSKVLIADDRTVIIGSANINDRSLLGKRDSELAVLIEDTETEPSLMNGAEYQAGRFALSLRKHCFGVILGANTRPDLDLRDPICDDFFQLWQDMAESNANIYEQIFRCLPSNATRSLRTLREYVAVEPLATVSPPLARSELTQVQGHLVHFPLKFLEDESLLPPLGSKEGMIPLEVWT
Sequence of Dual specificity protein kinase CLK1 (P49759 whole entry): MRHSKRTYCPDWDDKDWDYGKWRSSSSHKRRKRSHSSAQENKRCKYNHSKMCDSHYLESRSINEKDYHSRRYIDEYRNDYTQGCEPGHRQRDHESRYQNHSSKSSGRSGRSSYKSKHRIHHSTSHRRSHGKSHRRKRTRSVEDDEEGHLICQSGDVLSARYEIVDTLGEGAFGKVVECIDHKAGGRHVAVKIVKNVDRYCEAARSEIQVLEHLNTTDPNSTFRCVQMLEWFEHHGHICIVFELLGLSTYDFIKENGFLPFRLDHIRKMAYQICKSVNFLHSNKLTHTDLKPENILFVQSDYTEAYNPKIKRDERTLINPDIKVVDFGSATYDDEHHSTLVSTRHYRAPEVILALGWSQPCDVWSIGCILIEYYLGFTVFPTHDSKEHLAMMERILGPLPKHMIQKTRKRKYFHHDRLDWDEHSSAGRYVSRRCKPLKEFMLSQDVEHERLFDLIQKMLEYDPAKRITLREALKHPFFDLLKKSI
Sequence of Phospholipase D1 (Q13393 whole entry): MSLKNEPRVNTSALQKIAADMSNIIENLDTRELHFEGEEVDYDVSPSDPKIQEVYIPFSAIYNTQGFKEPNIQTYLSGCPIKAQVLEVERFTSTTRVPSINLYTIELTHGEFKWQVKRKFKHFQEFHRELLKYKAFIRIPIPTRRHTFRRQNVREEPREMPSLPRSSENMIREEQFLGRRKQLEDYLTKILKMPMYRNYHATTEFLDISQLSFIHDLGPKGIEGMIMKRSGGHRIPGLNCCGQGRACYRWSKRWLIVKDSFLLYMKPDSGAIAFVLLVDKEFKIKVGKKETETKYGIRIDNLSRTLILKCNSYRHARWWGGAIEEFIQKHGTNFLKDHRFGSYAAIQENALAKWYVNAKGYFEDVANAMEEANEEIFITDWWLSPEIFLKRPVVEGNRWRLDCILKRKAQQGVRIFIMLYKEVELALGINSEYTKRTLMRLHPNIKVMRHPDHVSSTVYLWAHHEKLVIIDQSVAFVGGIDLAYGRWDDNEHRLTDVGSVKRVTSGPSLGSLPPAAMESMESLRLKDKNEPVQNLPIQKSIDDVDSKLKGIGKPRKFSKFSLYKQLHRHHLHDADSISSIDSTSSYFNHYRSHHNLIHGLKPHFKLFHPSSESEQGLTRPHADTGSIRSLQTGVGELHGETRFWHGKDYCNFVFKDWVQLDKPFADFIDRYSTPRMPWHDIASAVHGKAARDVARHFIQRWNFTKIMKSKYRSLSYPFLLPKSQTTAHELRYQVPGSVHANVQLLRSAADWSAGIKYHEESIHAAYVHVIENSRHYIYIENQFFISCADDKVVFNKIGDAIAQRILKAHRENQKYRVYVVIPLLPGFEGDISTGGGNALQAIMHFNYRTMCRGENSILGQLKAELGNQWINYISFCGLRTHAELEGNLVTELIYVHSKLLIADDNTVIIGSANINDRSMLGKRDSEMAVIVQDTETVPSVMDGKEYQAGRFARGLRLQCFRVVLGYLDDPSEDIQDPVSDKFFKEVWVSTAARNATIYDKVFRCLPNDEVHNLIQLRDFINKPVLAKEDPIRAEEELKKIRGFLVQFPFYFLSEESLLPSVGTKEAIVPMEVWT

Nc1nc(Cl)nc2c1ncn2C1CC(O)C(CO)O1 (stereo not given)
EC50 [1]: 0.544 µM (active)
EC50 [2]: 3.61 µM (active)
EC50 [3]: 79.9 µM (active)
EC50 [4]: 0.567 µM (active)
IC50 [5]: 2.36 µM (active)
IC50 [6]: > 80 µM (inactive)
GI50 [7]: 0.0535 µM (active)
GI50 [8]: 0.695 µM (active)
GI50 [9]: 0.0428 µM (active)

Clc1cc(Cl)cc(CNc2ncncc2-c2ccc3c(c2)OCO3)c1
AC50 [10]: 0.0305 µM (active)

O=C(NCCN1CCC2(CC1)C(=O)NCN2c1ccc(Br)cc1)c1cnc2ccccc2c1
IC50 [11]: 3.04 µM (active)
IC50 [12]: 0.13 µM (active)

Cc1ccc(C(NC(=O)C(C)C)c2ccc3cccnc3c2O)cc1 (stereo not given)
IC50 [13]: 8.28 µM (active)
IC50 [14]: 3.26 µM (active)
IC50 [15]: 6.33 µM (active)
